Data published in publication PMC6639804 (The Biochemical journal, 2018).

Target: T1, Cnx1E (Arabidopsis thaliana, UniProt Q39054)
T1 sequence (Q39054 1-452): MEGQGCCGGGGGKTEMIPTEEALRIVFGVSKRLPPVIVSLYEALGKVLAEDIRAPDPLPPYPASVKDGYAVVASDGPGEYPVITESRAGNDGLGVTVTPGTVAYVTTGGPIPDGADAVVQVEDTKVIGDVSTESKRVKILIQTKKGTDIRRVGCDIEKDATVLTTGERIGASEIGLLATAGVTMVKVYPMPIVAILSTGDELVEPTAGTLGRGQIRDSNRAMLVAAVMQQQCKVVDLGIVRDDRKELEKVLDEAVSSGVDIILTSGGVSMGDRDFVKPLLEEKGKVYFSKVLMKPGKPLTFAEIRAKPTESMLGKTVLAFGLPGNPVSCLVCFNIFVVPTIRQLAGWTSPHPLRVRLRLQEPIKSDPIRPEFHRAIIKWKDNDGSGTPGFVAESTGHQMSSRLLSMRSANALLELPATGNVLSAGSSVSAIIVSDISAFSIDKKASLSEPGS
Assay: co-purified ligand, FormA-based HPLC
Type: binding
Conditions: co-purified from E. coli RK5206, not added; phosphodiesterase I treated sample

binding stoichiometry: 0.0136 +/− 0.0048
SMILES: Nc1nc2c(c(=O)[nH]1)N[C@H]1C(S)=C(S)[C@@H](COP(=O)(O)OP(=O)(O)OC[C@H]3O[C@@H](n4cnc5c(N)ncnc54)[C@H](O)[C@@H]3O)O[C@H]1N2 [MPT-AMP]
